Source: patent publication US10604512B2, “3-(1H-indol-2-yl)-1H-indazoles and therapeutic uses thereof” (Samumed, LLC, priority 2015, dated 2020)

How the values were obtained:
Format in all cases: cell-based
SW480 colon cancer cells = assay: Cell viability assay (CellTiter-Blue) in SW480 colon cancer cells; conditions: Homo sapiens, 96 h, four days; for inhibition at 10 µM: given where EC50 >10 μM, read-out: percent inhibition at 10 μM; for EC50: CellTiter-Blue
Summary of the method: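 SW480 cells (~2×10^3 per well) were exposed to compound for four days at 37 °C/5% CO2, using 8-point 1:3 dilutions from 10 μM to 0.0045 μM in duplicate. Viability was read by resazurin reduction (CellTiter-Blue, ~3 h, Ex 560/Em 590 nm). EC50 came from non-linear regression; above 10 μM, percent inhibition at 10 μM is given.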

IL-6 = assay: Inhibition of IL-6 in LPS-stimulated THP-1 human monocyte cells (HTRF); conditions: for EC50: IL-6 inhibition, LPS-stimulated THP-1 cells, HTRF; for inhibition at 10 µM: THP-1, printed beside >10 μM EC50, top concentration 10 μM, meaning not given, read-out: percentage in parentheses after EC50 >10
Summary of the method: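 THP-1 cells serum-reduced (1% FBS, 24 h), then 5000 cells/well preincubated 2 h with compound (10-point 1:3 series from 10 μM, 0.1% DMSO) before 500 ng/mL LPS for 22 h at 37 °C. Secreted IL-6 quantified by HTRF 665/620 ratio; DMSO-normalised duplicates fitted to four-parameter EC50; above 10 μM, % inhibition at 10 μM given.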

[1] = tested on: Wnt activity (Sp5-Luc reporter, TCF/LEF binding sites) in SW480 colon carcinoma cells; assay: Screening assay for Wnt activity: Sp5-Luc reporter gene assay in stably transduced SW480 colon carcinoma cells; conditions: Homo sapiens; for inhibition at 10 µM: given where EC50 >10 μM, read-out: percent inhibition at 10 μM; for EC50: overnight incubation, 10-point curve from 10 μM
Summary of the method: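 SW480 cells stably transduced with a luciferase reporter driven by an Sp5 promoter of eight TCF/LEF sites were plated at 4,000 cells/well in 1% FBS medium. They were exposed overnight at 37° C to a 10-point 1:3 dilution series from 10 μM (0.1% DMSO). Luminescence was normalized to DMSO for four-parameter EC50, or percent inhibition at 10 μM.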

| Compound | EC50 (SW480 colon cancer cells) | EC50 (IL-6) | EC50 [1] | inhibition at 10 µM (SW480 colon cancer cells) | inhibition at 10 µM (IL-6) | inhibition at 10 µM [1] |
| --- | --- | --- | --- | --- | --- | --- |
| CN1CCN(c2cccc3[nH]c(-c4n[nH]c5ccc(-c6cncnc6)cc45)cc23)CC1 [Compound 251, 3-(4-(4-Methylpiperazin-1-yl)-1H-indol-2-yl)-5-(pyrimidin-5-yl)-1H-indazole] | 3280 nM | 152 nM | 1420 nM |  |  |  |
| CC(C)C(=O)Nc1cncc(-c2ccc3[nH]nc(-c4cc5c(N6CCN(C)CC6)cccc5[nH]4)c3c2)c1 [Compound 233, N-(5-(3-(4-(4-Methylpiperazin-1-yl)-1H-indol-2-yl)-1H-indazol-5-yl)pyridin-3-yl)isobutyramide] | 3160 nM | 589 nM | 565 nM |  |  |  |
| c1ccc2[nH]c(-c3n[nH]c4ccc(-c5cncc(OCCN6CCCC6)c5)cc34)cc2c1 [Compound 686, 3-(1H-Indol-2-yl)-5-(5-(2-(pyrrolidin-1-yl)ethoxy)pyridin-3-yl)-1H-indazole] | 574 nM | 208 nM | 1090 nM |  |  |  |
| c1cncc(-c2ccc3[nH]nc(-c4cc5ccccc5[nH]4)c3c2)c1 [Compound 256, 3-(1H-Indol-2-yl)-5-(pyridin-3-yl)-1H-indazole] | > 10000 nM | 10 nM | 18 nM | 4.7% |  |  |
| O=C(Cc1ccccc1)Nc1cncc(-c2ccc3[nH]nc(-c4cc5ccccc5[nH]4)c3c2)c1 [Compound 262, N-(5-(3-(1H-Indol-2-yl)-1H-indazol-5-yl)pyridin-3-yl)-2-phenylacetamide] | > 10000 nM | > 10000 nM | 1560 nM | 11.4% | 0% |  |
| c1cc(-c2ccncc2)c2cc(-c3n[nH]c4ccc(-c5ccncc5)cc34)[nH]c2c1 [Compound 130, 5-(Pyridin-4-yl)-3-(4-(pyridin-4-yl)-1H-indol-2-yl)-1H-indazole] | > 10000 nM | > 10000 nM | > 10000 nM | 23.2% | 48.8% | 52.8% |
| CC(C)C(=O)Nc1cncc(-c2ccc3[nH]nc(-c4cc5c(-c6ccsc6)cccc5[nH]4)c3c2)c1 [Compound 289, N-(5-(3-(4-(Thiophen-3-yl)-1H-indol-2-yl)-1H-indazol-5-yl)pyridin-3-yl) isobutyramide] | 375 nM | > 10000 nM | 120 nM |  | 48.3% |  |
| c1cc(N2CCCCC2)c2cc(-c3n[nH]c4ccc(-c5cncc(OC6CCCCC6)c5)cc34)[nH]c2c1 [Compound 635, 5-(5-(Cyclohexyloxy)pyridin-3-yl)-3-(4-(piperidin-1-yl)-1H-indol-2-yl)-1H-indazole] | > 10000 nM | > 10000 nM | 2930 nM | 45.7% | 22.6% |  |
| c1cc(-c2ccoc2)c2cc(-c3n[nH]c4ccc(-c5cncc(OC6CCNCC6)c5)cc34)[nH]c2c1 [Compound 716, 3-(4-(Furan-3-yl)-1H-indol-2-yl)-5-(5-(piperidin-4-yloxy)pyridin-3-yl)-1H-indazole] | 2180 nM | > 10000 nM | 628 nM |  | 25.5% |  |

The next lines start with results.

| EC50 (SW480 colon cancer cells) | EC50 (IL-6) | EC50 [1] | Compound | inhibition at 10 µM (SW480 colon cancer cells) | inhibition at 10 µM (IL-6) | inhibition at 10 µM [1] |
| --- | --- | --- | --- | --- | --- | --- |
| > 10000 nM | > 10000 nM | > 10000 nM | Cc1ccncc1-c1ccc2[nH]nc(-c3cc4c(-c5ccncc5)cccc4[nH]3)c2c1 [Compound 117, 5-(4-Methylpyridin-3-yl)-3-(4-(pyridin-4-yl)-1H-indol-2-yl)-1H-indazole] | 20.9% | 38.6% | 19.6% |
| 412 nM | 150 nM | 275 nM | CN(C)Cc1cncc(-c2ccc3[nH]nc(-c4cc5c(-c6ccncc6)cccc5[nH]4)c3c2)c1 [Compound 125, N,N-dimethyl-1-(5-(3-(4-(Pyridin-4-yl)-1H-indol-2-yl)-1H-indazol-5-yl)pyridin-3-yl)methanamine] |  |  |  |
| 1290 nM | 3460 nM | 53 nM | Nc1cncc(-c2ccc3[nH]nc(-c4cc5c(-c6ccccc6F)cccc5[nH]4)c3c2)c1 [Compound 59, 5-(3-(4-(2-Fluorophenyl)-1H-indol-2-yl)-1H-indazol-5-yl)pyridin-3-amine] |  |  |  |
| > 10000 nM | > 10000 nM | 100 nM | O=C(Nc1cncc(-c2ccc3[nH]nc(-c4cc5c(-c6cccc(F)c6)cccc5[nH]4)c3c2)c1)C1CC1 [Compound 20, N-(5-(3-(4-(3-Fluorophenyl)-1H-indol-2-yl)-1H-indazol-5-yl)pyridin-3-yl) cyclopropanecarboxamide] | 15.6% | 44.7% |  |
| > 10000 nM | > 10000 nM | 475 nM | CCCC(=O)Nc1cncc(-c2ccc3[nH]nc(-c4cc5c(-c6ccc(F)cc6)cccc5[nH]4)c3c2)c1 [Compound 45, N-(5-(3-(4-(4-Fluorophenyl)-1H-indol-2-yl)-1H-indazol-5-yl)pyridin-3-yl)butyramide] | 5.3% | 44.6% |  |
| > 10000 nM | 102 nM | 440 nM | Fc1cccc(-c2cccc3[nH]c(-c4n[nH]c5ccc(-c6ccccn6)cc45)cc23)c1 [Compound 28, 3-(4-(3-Fluorophenyl)-1H-indol-2-yl)-5-(pyridin-2-yl)-1H-indazole] | 17.1% |  |  |
| > 10000 nM | 277 nM | 655 nM | CC(C)(C)C(=O)Nc1cncc(-c2ccc3[nH]nc(-c4cc5c(-c6ccc(F)cc6)cccc5[nH]4)c3c2)c1 [Compound 36, N-(5-(3-(4-(4-Fluorophenyl)-1H-indol-2-yl)-1H-indazol-5-yl)pyridin-3-yl) pivalamide] | 50.4% |  |  |
| 462 nM | 109 nM | 135 nM | O=C(Nc1cncc(-c2ccc3[nH]nc(-c4cc5c(-c6ccncc6)cccc5[nH]4)c3c2)c1)C1CC1 [Compound 132, N-(5-(3-(4-(Pyridin-4-yl)-1H-indol-2-yl)-1H-indazol-5-yl)pyridin-3-yl) cyclopropanecarboxamide] |  |  |  |
| > 10000 nM | 4840 nM | 1900 nM | Cc1ccncc1-c1ccc2[nH]nc(-c3cc4c(-c5ccccn5)cccc4[nH]3)c2c1 [Compound 145, 5-(4-Methylpyridin-3-yl)-3-(4-(pyridin-2-yl)-1H-indol-2-yl)-1H-indazole] | 36.7% |  |  |
| 748 nM | 290 nM | 60 nM | Nc1cncc(-c2ccc3[nH]nc(-c4cc5c(-c6ccccn6)cccc5[nH]4)c3c2)c1 [Compound 143, 5-(3-(4-(Pyridin-2-yl)-1H-indol-2-yl)-1H-indazol-5-yl)pyridin-3-amine] |  |  |  |
| > 10000 nM | 23 nM | 500 nM | c1cncc(-c2ccc3[nH]nc(-c4cc5c(-c6cccnc6)cccc5[nH]4)c3c2)c1 [Compound 88, 5-(Pyridin-3-yl)-3-(4-(pyridin-3-yl)-1H-indol-2-yl)-1H-indazole] | 21.9% |  |  |
